Test results published in ChEMBL document CHEMBL1137466, “5'-Phenyl-3'H-spiro[indoline-3,2'-[1,3,4]thiadiazol]-2-one inhibitors of ADAMTS-5 (aggrecanase-2)” (Bioorg Med Chem Lett, 2007).

Experiments:
[1] = biological target: T1, A disintegrin and metalloproteinase with thrombospondin motifs 5 (Homo sapiens, UniProt Q9UNA0); assay: Inhibition of ADAMTS5 by FRET assay
T1 sequence (Q9UNA0 whole entry): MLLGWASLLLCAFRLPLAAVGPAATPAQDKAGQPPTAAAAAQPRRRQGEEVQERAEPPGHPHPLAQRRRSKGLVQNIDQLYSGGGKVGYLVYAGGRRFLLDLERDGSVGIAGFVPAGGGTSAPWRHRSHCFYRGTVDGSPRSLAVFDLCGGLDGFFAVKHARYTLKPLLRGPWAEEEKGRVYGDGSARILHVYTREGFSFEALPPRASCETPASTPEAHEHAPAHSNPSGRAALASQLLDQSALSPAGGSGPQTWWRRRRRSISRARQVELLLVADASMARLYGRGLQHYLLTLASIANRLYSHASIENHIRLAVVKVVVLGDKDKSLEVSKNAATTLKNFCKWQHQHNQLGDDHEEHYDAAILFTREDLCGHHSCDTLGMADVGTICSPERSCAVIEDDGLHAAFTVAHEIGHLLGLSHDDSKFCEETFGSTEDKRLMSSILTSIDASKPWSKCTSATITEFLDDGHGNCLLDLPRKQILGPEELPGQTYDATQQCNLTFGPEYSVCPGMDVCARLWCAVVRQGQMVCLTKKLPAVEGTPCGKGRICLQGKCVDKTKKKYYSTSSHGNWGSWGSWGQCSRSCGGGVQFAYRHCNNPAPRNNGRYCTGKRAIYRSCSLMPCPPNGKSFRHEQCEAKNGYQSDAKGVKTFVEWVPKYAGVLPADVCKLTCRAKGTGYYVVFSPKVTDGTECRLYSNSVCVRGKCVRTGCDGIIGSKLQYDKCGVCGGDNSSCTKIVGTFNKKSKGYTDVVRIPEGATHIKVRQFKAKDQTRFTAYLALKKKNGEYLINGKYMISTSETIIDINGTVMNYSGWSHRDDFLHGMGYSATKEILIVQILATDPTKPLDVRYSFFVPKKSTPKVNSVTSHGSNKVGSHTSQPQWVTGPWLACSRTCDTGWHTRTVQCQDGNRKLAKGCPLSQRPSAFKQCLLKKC

[2] = biological target: Collagenase 3 (Homo sapiens, UniProt P45452); assay: Inhibition of MMP13
[3] = biological target: Macrophage metalloelastase (Homo sapiens, UniProt P39900); assay: Inhibition of MMP12
Macrophage metalloelastase, sequence (P39900 whole entry): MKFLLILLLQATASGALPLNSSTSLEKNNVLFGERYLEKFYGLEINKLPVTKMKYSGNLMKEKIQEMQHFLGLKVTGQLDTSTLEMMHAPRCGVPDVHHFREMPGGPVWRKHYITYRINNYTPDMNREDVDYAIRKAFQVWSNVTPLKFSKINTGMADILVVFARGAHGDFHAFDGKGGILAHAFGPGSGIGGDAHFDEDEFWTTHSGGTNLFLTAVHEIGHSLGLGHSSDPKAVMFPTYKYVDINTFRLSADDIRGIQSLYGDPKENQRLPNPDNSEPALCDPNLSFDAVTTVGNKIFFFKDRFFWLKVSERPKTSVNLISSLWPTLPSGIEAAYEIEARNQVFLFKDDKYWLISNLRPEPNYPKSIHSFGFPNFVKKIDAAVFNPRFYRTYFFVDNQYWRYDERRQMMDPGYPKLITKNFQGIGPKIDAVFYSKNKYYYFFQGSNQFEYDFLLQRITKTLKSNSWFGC

[4] = biological target: T2, A disintegrin and metalloproteinase with thrombospondin motifs 4 (Homo sapiens, UniProt O75173); assay: Inhibition of ADAMTS4
T2 sequence (O75173 whole entry): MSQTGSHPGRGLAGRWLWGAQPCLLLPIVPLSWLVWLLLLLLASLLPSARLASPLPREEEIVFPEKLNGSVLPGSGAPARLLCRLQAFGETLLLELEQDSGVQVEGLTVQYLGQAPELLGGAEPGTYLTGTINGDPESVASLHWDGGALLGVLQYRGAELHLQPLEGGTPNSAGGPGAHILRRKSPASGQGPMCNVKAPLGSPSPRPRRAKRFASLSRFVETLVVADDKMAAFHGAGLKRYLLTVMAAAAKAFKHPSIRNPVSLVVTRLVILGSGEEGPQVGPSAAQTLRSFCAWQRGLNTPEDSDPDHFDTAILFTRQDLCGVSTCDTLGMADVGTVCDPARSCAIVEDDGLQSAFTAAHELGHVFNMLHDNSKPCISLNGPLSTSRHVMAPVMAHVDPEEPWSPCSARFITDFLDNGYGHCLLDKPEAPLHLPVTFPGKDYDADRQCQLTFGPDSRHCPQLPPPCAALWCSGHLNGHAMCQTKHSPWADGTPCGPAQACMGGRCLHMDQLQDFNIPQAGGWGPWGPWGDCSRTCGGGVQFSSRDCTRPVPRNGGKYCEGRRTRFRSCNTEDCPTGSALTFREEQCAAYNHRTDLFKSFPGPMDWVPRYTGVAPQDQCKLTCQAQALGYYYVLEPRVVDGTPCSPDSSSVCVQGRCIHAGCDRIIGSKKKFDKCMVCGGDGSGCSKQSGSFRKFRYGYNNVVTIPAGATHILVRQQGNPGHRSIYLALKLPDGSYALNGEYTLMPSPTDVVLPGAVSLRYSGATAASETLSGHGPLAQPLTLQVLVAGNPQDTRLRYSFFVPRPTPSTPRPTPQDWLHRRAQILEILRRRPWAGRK

IC50 [1]	IC50 [2]	IC50 [3]	IC50 [4]	SMILES
0.95 µM				CCCc1cc2c(cc1C)C1(NN=C(c3ccc(OC)cc3)S1)C(=O)N2Cc1ccccc1 (stereo unspecified)
	> 100 µM	> 22 µM		COc1ccc(C2=NNC3(S2)C(=O)N(Cc2ccccc2)c2ccc(C)cc23)cc1 (stereo unspecified)
0.87 µM	> 100 µM	5.6 µM	> 22 µM	COc1ccc(C2=NNC3(S2)C(=O)N(Cc2ccccc2)c2ccccc23)cc1 (stereo unspecified)
	> 22 µM	1.7 µM	> 22 µM	CCCc1ccc2c(c1)NC(=O)C21NN=C(c2ccc(OC)cc2)S1 (stereo unspecified)
3.1 µM				CC(C)N1C(=O)C2(NN=C(c3ccccc3)S2)c2ccccc21 (stereo unspecified)
3 µM				Cc1ccc(C2=NNC3(S2)C(=O)Nc2ccc(C)cc23)cc1 (stereo unspecified)
3.7 µM				Cc1ccc(C2=NNC3(S2)C(=O)Nc2ccccc23)cc1 (stereo unspecified)
1.2 µM				Cc1ccc(C2=NNC3(S2)C(=O)N(c2ccccc2C)c2ccc(C)cc23)cc1 (stereo unspecified)
1.4 µM				CCc1ccc2c(c1)C1(NN=C(c3ccc(OC)cc3)S1)C(=O)N2 (stereo unspecified)
2 µM				COc1ccc(C2=NNC3(S2)C(=O)Nc2ccc(Cl)cc23)cc1 (stereo unspecified)
2.5 µM				COc1ccc(C2=NNC3(S2)C(=O)Nc2ccc(C)cc23)cc1 (stereo unspecified)
1.9 µM				CCc1ccc2c(c1)C1(NN=C(c3ccc(C)cc3)S1)C(=O)N2 (stereo unspecified)
4.6 µM				Cc1ccc(C2=NNC3(S2)C(=O)N(C)c2ccccc23)cc1 (stereo unspecified)
24.2 µM				O=C1Nc2ccccc2C12NN=C(c1ccccc1)S2 (stereo unspecified)
1.2 µM				COc1ccc(C2=NNC3(S2)C(=O)Nc2cc(Cl)ccc23)cc1 (stereo unspecified)
7.5 µM				COc1ccc(C2=NNC3(S2)C(=O)N(C)c2ccccc23)cc1 (stereo unspecified)
9.6 µM				CCc1ccc2c(c1)C1(NN=C(c3ccccc3)S1)C(=O)N2 (stereo unspecified)
	> 100 µM	> 22 µM	10.5 µM	COc1ccc(C2=NNC3(S2)C(=O)N(c2ccccc2C)c2ccc(C)cc23)cc1 (stereo unspecified)
